Reference: ChEMBL document CHEMBL1147353, “The Isolation of Majusculamide C from the Sponge Ptilocaulis trachys Collected in Enewetak and Determination of the Absolute Configuration of the 2-Methyl-3-aminopentanoic Acid Residue” (1993)
Values after ≈ are worked out from the molar mass of the structure shown. Numbered stars: 1 amine (or outer) side, 2 acyl side, 3 side chain; on linkers, the order of the positions; unused ones are H or OH. Square brackets hold non-standard residues; d marks the D form. Peptide text beside a SMILES is read from it. X1 = CC[C@H](C)[C@H](OC(=O)[C@@H](C)[C@@H](CC)N[*:1])C(=O)[*:2]; X2 = C[C@H](N[*:1])C(=O)C(C)(C)C(=O)[*:2]; NMeY = CN[C@@H](Cc1ccc(O)cc1)C(=O)O; NMeF = CN[C@@H](Cc1ccccc1)C(=O)O; NMeL = CN[C@@H](CC(C)C)C(=O)O; NMeV = CN[C@H](C(=O)O)C(C)C; NMeA = CN[C@@H](C)C(=O)O

Tested on: P388
Test: Cytotoxicity against mouse P388 cells
Format: functional
Details: read-out: ED50 (the source's name)

| Structure (SMILES) | EC50 |
| --- | --- |
| CC[C@H](C)[C@@H]1OC(=O)[C@@H](C)[C@@H](CC)NC(=O)[C@H](C)N(C)C(=O)C(C)(C)C(=O)[C@H](C)NC(=O)[C@H](Cc2ccccc2)N(C)C(=O)[C@H](C(C)C)N(C)C(=O)CNC(=O)[C@H](CC(C)C)N(C)C(=O)CNC1=O [DOLASTATIN 12] (cyclo(G[NMeL]G[NMeV][NMeF][X2][NMeA][X1])) | 0.075 µg/mL (≈ 0.0774 µM) |
| CC[C@H](C)[C@@H]1OC(=O)[C@@H](C)[C@@H](CC)NC(=O)[C@H](C)NC(=O)C(C)(C)C(=O)[C@H](C)NC(=O)[C@H](Cc2ccc(OC)cc2)N(C)C(=O)[C@H](C(C)C)N(C)C(=O)CNC(=O)[C@H](CC(C)C)N(C)C(=O)CNC1=O [DOLASTATIN 11] (cyclo(A[X1]G[NMeL]G[NMeV][NMeY](Me)[X2])) | 0.0027 µg/mL (≈ 0.00274 µM) |
